Here are results for one substance from patent US6387397B1, “Polymerized liposomes targeted to M cells and useful for oral or mucosal drug delivery” (Massachusetts Institute of Technology, priority 1997, dated 2002).

This assay in a line: In vivo oral insulin delivery; blood glucose level. The settings on record: mice, single oral dose, 1 to 3.5 hours. The arrangement: species or system Balb/C mice. As to the method:
Balb/C mice of female sex were fasted for 12 hours before experiment. Each mouse wag savaged 200 μL of each preparation as described in Table 9.3. Food was restored immediately after administration. Blood samples for glucose determination was drawn from mouse tail vein under methoxyflurane anesthesia. Samples were drawn right before the administration (0 hour), as well as at 1, 2, 3 and 3.5 hours post administration of each preparation. Blood glucose level was measured using a One Touch® Profile Diabetes Tracking system (Lifescan, Milpitas, Calif.) with One Touch® Test strips, by applying blood to form a round drop which completely covered the test spot on the test strip. Readings (in mg/dL) were obtained from the meter indicating the blood glucose level detected.
Blood glucose level at zero hour was taken at 100 percent. Blood glucose levels after the oral administration were normalized by the level at zero hour, and the results were plotted in FIG. 9. […] This was due to the degradation of the unprotected peptide in the gastrointestinal tract by the digestive enzymes. […] This is consistent with the fact that unpolymerized liposomes are not stable in the gastrointestinal tract, where they are dissolved by the biological detergents. The dissolution results in the exposure of liposomal contents and therefore the loss of liposome protective functions. […]

On to “insulin in solution: human insulin (regular) administered orally in solution”, for which the “change in blood glucose level after oral administration” value is “did not result in any significant change”.
